Reference: patent US8921516B2, “Synthetic, defined fibronectin mimetic peptides and surfaces modified with the same” (Corning Incorporated, priority 2010, dated 2014)

Key:
[1] = system: A-172 human glioblastoma cancer cells; assay: A-172 cell attachment to peptide coated surfaces (images and MTS assay); type: cell-based; conditions: A-172 cells, images and MTS assay (FIG. 4A and FIG. 4B); compared with BD BioCoat fibronectin surface
Description: FIG. 4A is an image of A-172 human glioblastoma cancer cells attached to a surface that has a coating thereon of […] (SEQ ID NO: 8) referred to therein as “DA2”, […] (SEQ ID NO: 9) referred to therein as “DA4”, […] (SEQ ID NO: 10) referred to therein as “DA1”, […] (SEQ ID NO: 11) referred to therein as “DA3”.
To explore the ability of a surface modified by the compound of the present invention to mimic one or more functional characteristics of a fibronectin coated surface, cells were seeded and monitored on both such surfaces under the same culture conditions. In brief, LNCaP cells, MIA-PaCa-2, A-172, or RKO cells from ATCC were cultured according to supplier's instructions. LNCaP were cultured in RPMI-1640 Medium (ATCC Catalog No. 30-2001) supplemented with 10% fetal bovine serum. MIA-PaCa-2 and A-172 cells were grown in DMEM (Invitrogen cat #11885-084) supplemented with 10% fetal bovine serum. RKO cells were cultured in EMEM (ATCC cat#30-2003) supplemented with 10% fetal bovine serum. Cells were cultured at 37° C. in a humidified incubator with 5% CO2. For seeding, media was removed, cells were washed with PBS, and 3 ml of 0.25% Trypsin-EDTA was added to the cells in T-75 flask. Flasks were examined under the microscope, once cells detached from the surface, 10 ml culture media was added to neutralize Trypsin. Cells were transferred to a 15 ml. BD Falcon tube and centrifuged at 200×g for 10 min. Supernatant was removed and the cell pellet washed once with DMEM (Invitrogen cat #11885-084) having 200 microgram/ml BSA. Cells were resuspended in DMEM having 200 microgram/ml BSA and seeded at 50,000 cells/cm^2 in 1.0 ml media per well of a 24 well plate. The culture surface was either a surface modified by the compound […] (SEQ ID NO: 7) or BD BioCoat fibronectin which served as a positive control. Additionally, BD tissue culture treated surface served as negative control. Cells were incubated for 24 hr at 37° C. in a humidified incubator with 5% CO2.
In addition to the aforementioned visual analysis, MTS analysis was carried out to quantify the degree of cell attachment. In brief, media was removed by inverting the plate and 300 μl complete media containing MTS (Promega cat #G3582) was added to each well of a 24 well plate. Cells were incubated for 1 hr at 37° C. in a humidified incubator at 5% CO2. Following incubation, 0.1 ml media was transferred to BD Falcon™ 96 well plate and absorbance was measured at 490 nm.

LNCaP cells [2] = assay: MTS assay quantification of LNCaP cell attachment; type: cell-based, human; conditions: 24 hr post-seeding, FIG. 2, treated surface vs BD BioCoat fibronectin
Description: To explore the ability of a surface modified by the compound of the present invention to mimic one or more functional characteristics of a fibronectin coated surface, cells were seeded and monitored on both such surfaces under the same culture conditions. In brief, LNCaP cells, MIA-PaCa-2, A-172, or RKO cells from ATCC were cultured according to supplier's instructions. LNCaP were cultured in RPMI-1640 Medium (ATCC Catalog No. 30-2001) supplemented with 10% fetal bovine serum. MIA-PaCa-2 and A-172 cells were grown in DMEM (Invitrogen cat #11885-084) supplemented with 10% fetal bovine serum. RKO cells were cultured in EMEM (ATCC cat#30-2003) supplemented with 10% fetal bovine serum. Cells were cultured at 37° C. in a humidified incubator with 5% CO2. For seeding, media was removed, cells were washed with PBS, and 3 ml of 0.25% Trypsin-EDTA was added to the cells in T-75 flask. Flasks were examined under the microscope, once cells detached from the surface, 10 ml culture media was added to neutralize Trypsin. Cells were transferred to a 15 ml. BD Falcon tube and centrifuged at 200×g for 10 min. […]
In addition to the aforementioned visual analysis, MTS analysis was carried out to quantify the degree of cell attachment. […] Following incubation, 0.1 ml media was transferred to BD Falcon™ 96 well plate and absorbance was measured at 490 nm.

A-172 cells = assay: Confluence quantification by IncuCyte of A-172 cell attachment; type: cell-based, human; conditions: FIG. 3, treated surface vs BD BioCoat fibronectin
Description: (§1) To explore the ability of a surface modified by the compound of the present invention to mimic one or more functional characteristics of a fibronectin coated surface, cells were seeded and monitored on both such surfaces under the same culture conditions. In brief, LNCaP cells, MIA-PaCa-2, A-172, or RKO cells from ATCC were cultured according to supplier's instructions. LNCaP were cultured in RPMI-1640 Medium (ATCC Catalog No. 30-2001) supplemented with 10% fetal bovine serum. MIA-PaCa-2 and A-172 cells were grown in DMEM (Invitrogen cat #11885-084) supplemented with 10% fetal bovine serum. RKO cells were cultured in EMEM (ATCC cat#30-2003) supplemented with 10% fetal bovine serum. Cells were cultured at 37° C. in a humidified incubator with 5% CO2. For seeding, media was removed, cells were washed with PBS, and 3 ml of 0.25% Trypsin-EDTA was added to the cells in T-75 flask. Flasks were examined under the microscope, once cells detached from the surface, 10 ml culture media was added to neutralize Trypsin. Cells were transferred to a 15 ml. BD Falcon tube and centrifuged at 200×g for 10 min. Supernatant was removed and the cell pellet washed once with DMEM (Invitrogen cat #11885-084) having 200 microgram/ml BSA. Cells were resuspended in DMEM having 200 microgram/ml BSA and seeded at 50,000 cells/cm^2 in 1.0 ml media per well of a 24 well plate. […]

RKO cells = assay: Confluence quantification by IncuCyte of RKO cell attachment; type: cell-based, human; conditions: FIG. 3, treated surface vs BD BioCoat fibronectin
Description: as §1

LNCaP cells [3] = assay: LNCaP cell attachment and spreading on modified surface, visualized by microscope; type: cell-based, human; conditions: 24 hr post-seeding, microscope images (FIG. 1), surface modified by compound vs BD BioCoat fibronectin
Description: as §1

| Sequence | cell attachment and spreading [1] | further results |
| --- | --- | --- |
| KSGRARADRVPHSRNTITLTNGGSGGSGGSGRGDSP (two regions of a fibronectin cell-binding domain joined by a flexible linker) [SEQ ID NO: 11] | supported cell attachment and spreading similar to a BD BioCoat fibronectin surface | – |
| KSGRARADRVPHSRNTITLTNSGSGSGSGSGRGDSP (two regions of a fibronectin cell-binding domain joined by a flexible linker) [SEQ ID NO: 10] | supported cell attachment and spreading similar to a BD BioCoat fibronectin surface | – |
| KSGRGRGDRVPHSRNGITLTNSGSGSGSGSGRGDSP (two regions of a fibronectin cell-binding domain joined by a flexible linker) [SEQ ID NO: 12] | supported cell attachment and spreading similar to a BD BioCoat fibronectin surface | – |
| KSGRPREDRVPHSRNSITLTNGGGSGGGSGGGRGDSP (two regions of a fibronectin cell-binding domain joined by a flexible linker) [SEQ ID NO: 9] | supported cell attachment and spreading similar to a BD BioCoat fibronectin surface | – |
| KSGRPREDRVPHSRNSITLTNSGSGSGSGSGRGDSP (two regions of a fibronectin cell-binding domain joined by a flexible linker) [SEQ ID NO: 7] | supported cell attachment and spreading similar to a BD BioCoat fibronectin surface | LNCaP cell attachment (MTS assay, absorbance at 490 nm) (LNCaP cells [2]): comparable; confluence quantification by IncuCyte (A-172 cells): comparable; confluence quantification by IncuCyte (RKO cells): comparable; cell attachment and spreading (LNCaP cells [3]): comparable |
| KSGRPREDRVPHSRNSITLTNSGTGSGTGSGRGDSP (two regions of a fibronectin cell-binding domain joined by a flexible linker) [SEQ ID NO: 8] | supported cell attachment and spreading similar to a BD BioCoat fibronectin surface | – |
